Starred links: 1 amine or outer side, 2 acyl side, 3 side chain; linkers in the order of their positions; H or OH if unused. Positions of bridges follow the written chain, without caps; N, C: chain ends. Non-standard residues stand in square brackets, D forms with d. Residues, ends and D or L forms follow the SMILES beside them. Groups on a side chain read outwards from the residue. *: point of attachment. Ala(piperidin-4-yl) = O=C([C@H](CC1CCN([*:3])CC1)N[*:1])[*:2]; DOTA = O=C(O)CN1CCN(CC(=O)O)CCN(CC(=O)*)CCN(CC(=O)O)CC1; Trp(1-CH2COOH) = N[C@@H](Cc1cn(CC(=O)O)c2ccccc12)C(=O)O; Trp(5-F) = N[C@@H](Cc1c[nH]c2ccc(F)cc12)C(=O)O; γGlu = O=C(O)[C@H](CCC(=O)[*:2])N[*:1]; Ala(4-THP) = N[C@@H](CC1CCOCC1)C(=O)O; hLeu(5-Me) = CC(C)(C)CC[C@H](N)C(=O)O; Val(3-OH) = CC(C)(O)[C@H](N)C(=O)O; PEG4 = NCCOCCOCCOCCOCCC(=O)O; Tle = CC(C)(C)[C@H](N)C(=O)O; hLeu = CC(C)CC[C@H](N)C(=O)O; PEG1 = NCCOCCC(=O)O; AEA = NCCOCC(=O)O; Sar = CNCC(=O)O
biological target: T1, human 4lg B7-H3 (Homo sapiens, UniProt Q5ZPR3); assay: Affinity determination by surface plasmon resonance (SPR) to 4Ig B7-H3; conditions: SPR KD—37° C., 4Ig B7-H3; 37° C. flow cell temperature
T1 sequence (Q5ZPR3 29-534): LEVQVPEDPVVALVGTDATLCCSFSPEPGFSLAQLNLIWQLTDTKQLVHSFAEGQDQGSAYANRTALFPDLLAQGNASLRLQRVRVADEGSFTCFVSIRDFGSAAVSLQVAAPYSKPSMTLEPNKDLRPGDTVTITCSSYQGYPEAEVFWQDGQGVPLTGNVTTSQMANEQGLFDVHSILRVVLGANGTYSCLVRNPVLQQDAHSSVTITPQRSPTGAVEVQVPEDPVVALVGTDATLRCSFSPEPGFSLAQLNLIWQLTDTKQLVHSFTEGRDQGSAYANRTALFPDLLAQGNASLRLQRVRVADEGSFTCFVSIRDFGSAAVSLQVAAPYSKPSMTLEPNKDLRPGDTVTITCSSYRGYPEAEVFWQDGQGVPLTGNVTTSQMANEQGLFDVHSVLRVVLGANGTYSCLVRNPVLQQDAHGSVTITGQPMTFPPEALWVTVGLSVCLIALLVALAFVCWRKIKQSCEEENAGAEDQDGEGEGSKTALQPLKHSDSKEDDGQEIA

Structure (SMILES) | Kd
CC(=O)N[C@@H](CCC(C)C)C(=O)N[C@@H](Cc1ccc(O)cc1)C(=O)N[C@H]1CSSC[C@@H](C(=O)N[C@@H](Cc2c[nH]c3ccc(F)cc23)C(=O)N[C@@H](Cc2ccccc2)C(=O)N[C@H](C(N)=O)C(C)(C)O)NC(=O)[C@H](Cc2ccc(O)cc2)NC(=O)[C@H](C(C)C)NC(=O)[C@H](CC(=O)O)NC(=O)[C@H](CC2CCOCC2)NC(=O)[C@H](CC2CCN(C(=O)CCOCCOCCOCCOCCNC(=O)CN3CCN(CC(=O)O)CCN(CC(=O)O)CCN(CC(=O)O)CC3)CC2)NC(=O)CNC(=O)[C@H](C(C)(C)C)NC1=O [compound 382, Ac-hLeu-Y-C-Tbg-G-Pip(PEG4-DOTA)Ala-ThpA-D-V-Y-C-5FW-F-hydroxyVal-CONH2] (Ac-[hLeu]YC[Tle]G[Ala(piperidin-4-yl)]([PEG4-DOTA])[Ala(4-THP)]DVYC[Trp(5-F)]F[Val(3-OH)]-NH2; disulfide 3-11) | 1 to 10 nM
CC(C)CC[C@H](NC(=O)COCCNC(=O)[C@H](CCC(=O)O)NC(=O)CN1CCN(CC(=O)O)CCN(CC(=O)O)CCN(CC(=O)O)CC1)C(=O)N[C@@H](Cc1ccc(O)cc1)C(=O)N[C@H]1CSSC[C@@H](C(=O)N[C@@H](Cc2c[nH]c3ccc(F)cc23)C(=O)N[C@@H](Cc2ccccc2)C(=O)N[C@H](C(N)=O)C(C)(C)O)NC(=O)[C@H](Cc2ccc(O)cc2)NC(=O)[C@H](C(C)C)NC(=O)[C@H](CC(=O)O)NC(=O)[C@H](CC2CCOCC2)NC(=O)[C@H](CCCCN)NC(=O)CNC(=O)[C@H](C(C)(C)C)NC1=O [compound 392, DOTA-Glu-AEA-hLeu-Y-C-Tbg-G-K-ThpA-D-V-Y-C-5FW-F-hydroxyVal-CONH2] ({DOTA}-E[AEA][hLeu]YC[Tle]GK[Ala(4-THP)]DVYC[Trp(5-F)]F[Val(3-OH)]-NH2; disulfide 5-13) | 1 to 10 nM
CC(C)CC[C@H](NC(=O)COCCNC(=O)CC[C@H](NC(=O)CN1CCN(CC(=O)O)CCN(CC(=O)O)CCN(CC(=O)O)CC1)C(=O)O)C(=O)N[C@@H](Cc1ccc(O)cc1)C(=O)N[C@H]1CSSC[C@@H](C(=O)N[C@@H](Cc2c[nH]c3ccc(F)cc23)C(=O)N[C@@H](Cc2ccccc2)C(=O)N[C@H](C(N)=O)C(C)(C)O)NC(=O)[C@H](Cc2ccc(O)cc2)NC(=O)[C@H](C(C)C)NC(=O)[C@H](CC(=O)O)NC(=O)[C@H](CC2CCOCC2)NC(=O)[C@H](CCCCN)NC(=O)CNC(=O)[C@H](C(C)(C)C)NC1=O [compound 393, DOTA-gE-AEA-hLeu-Y-C-Tbg-G-K-ThpA-D-V-Y-C-5FW-F-hydroxyVal-CONH2] ({DOTA-γGlu-AEA}-[hLeu]YC[Tle]GK[Ala(4-THP)]DVYC[Trp(5-F)]F[Val(3-OH)]-NH2; disulfide 3-11) | 1 to 10 nM
CC(C)CC[C@H](NC(=O)CCOCCNC(=O)[C@H](CCC(=O)O)NC(=O)CN1CCN(CC(=O)O)CCN(CC(=O)O)CCN(CC(=O)O)CC1)C(=O)N[C@@H](Cc1ccc(O)cc1)C(=O)N[C@H]1CSSC[C@@H](C(=O)N[C@@H](Cc2c[nH]c3ccc(F)cc23)C(=O)N[C@@H](Cc2ccccc2)C(=O)N[C@H](C(N)=O)C(C)(C)O)NC(=O)[C@H](Cc2ccc(O)cc2)NC(=O)[C@H](C(C)C)NC(=O)[C@H](CC(=O)O)NC(=O)[C@H](CC2CCOCC2)NC(=O)[C@H](CCCCN)NC(=O)CNC(=O)[C@H](C(C)(C)C)NC1=O [compound 394, DOTA-Glu-PEG1-hLeu-Y-C-Tbg-G-K-ThpA-D-V-Y-C-5FW-F-hydroxyVal-CONH2] ({DOTA}-E[PEG1][hLeu]YC[Tle]GK[Ala(4-THP)]DVYC[Trp(5-F)]F[Val(3-OH)]-NH2; disulfide 5-13) | 1 to 10 nM
CC(C)CC[C@H](NC(=O)CCOCCNC(=O)CC[C@H](NC(=O)CN1CCN(CC(=O)O)CCN(CC(=O)O)CCN(CC(=O)O)CC1)C(=O)O)C(=O)N[C@@H](Cc1ccc(O)cc1)C(=O)N[C@H]1CSSC[C@@H](C(=O)N[C@@H](Cc2c[nH]c3ccc(F)cc23)C(=O)N[C@@H](Cc2ccccc2)C(=O)N[C@H](C(N)=O)C(C)(C)O)NC(=O)[C@H](Cc2ccc(O)cc2)NC(=O)[C@H](C(C)C)NC(=O)[C@H](CC(=O)O)NC(=O)[C@H](CC2CCOCC2)NC(=O)[C@H](CCCCN)NC(=O)CNC(=O)[C@H](C(C)(C)C)NC1=O [compound 395, DOTA-gE-PEG1-hLeu-Y-C-Tbg-G-K-ThpA-D-V-Y-C-5FW-F-hydroxyVal-CONH2] ({DOTA-γGlu-PEG1}-[hLeu]YC[Tle]GK[Ala(4-THP)]DVYC[Trp(5-F)]F[Val(3-OH)]-NH2; disulfide 3-11) | 1 to 10 nM
CC(=O)N[C@@H](CCC(C)C)C(=O)N[C@@H](Cc1ccc(O)cc1)C(=O)N[C@H]1CSSC[C@@H](C(=O)N[C@@H](Cc2cn(CC(=O)O)c3ccccc23)C(=O)N[C@@H](Cc2ccccc2)C(=O)N[C@H](C(=O)N[C@H](CCCCNC(=O)CN2CCN(CC(=O)O)CCN(CC(=O)O)CCN(CC(=O)O)CC2)C(=O)O)C(C)(C)O)NC(=O)[C@H](Cc2ccc(O)cc2)NC(=O)[C@H](C(C)C)NC(=O)[C@H](CC(=O)O)NC(=O)[C@H](CC2CCOCC2)NC(=O)[C@H](CCCCN)NC(=O)CNC(=O)[C@H](C(C)(C)C)NC1=O [compound 396, Ac-hLeu-Y-C-Tbg-G-K-ThpA-D-V-Y-C-Trp(CH2COOH)-F-hydroxyVal-dLys(DOTA)-COOH] (Ac-[hLeu]YC[Tle]GK[Ala(4-THP)]DVYC[Trp(1-CH2COOH)]F[Val(3-OH)][dK](DOTA)-OH; disulfide 3-11) | 100 to 300 nM
CC(=O)N[C@@H](CCC(C)C)C(=O)N[C@@H](Cc1ccc(O)cc1)C(=O)N[C@H]1CSSC[C@@H](C(=O)N[C@@H](Cc2c[nH]c3ccc(F)cc23)C(=O)N[C@@H](Cc2ccccc2)C(=O)N[C@H](C(N)=O)C(C)(C)O)NC(=O)[C@H](Cc2ccc(O)cc2)NC(=O)[C@H](C(C)C)NC(=O)[C@H](CC(=O)O)NC(=O)[C@H](CC2CCOCC2)NC(=O)[C@H](CCCCN)NC(=O)CNC(=O)[C@H](C(C)(C)C)NC1=O [compound 404, Ac-hLeu-Y-C-Tbg-G-K-ThpA-D-V-Y-C-5FW-F-hydroxyVal-CONH2] (Ac-[hLeu]YC[Tle]GK[Ala(4-THP)]DVYC[Trp(5-F)]F[Val(3-OH)]-NH2; disulfide 3-11) | 1 to 10 nM

The next lines start with the values.

Kd | Structure (SMILES)
10 to 100 nM | CC(=O)N[C@@H](CCC(C)C)C(=O)N[C@@H](Cc1ccc(O)cc1)C(=O)N[C@H]1CSSC[C@@H](C(=O)N[C@@H](Cc2c[nH]c3ccc(F)cc23)C(=O)N[C@@H](Cc2ccccc2)C(=O)N[C@H](C(=O)N[C@H](CCCCNC(=O)CN2CCN(CC(=O)O)CCN(CC(=O)O)CCN(CC(=O)O)CC2)C(=O)O)C(C)(C)O)NC(=O)[C@H](Cc2ccc(O)cc2)NC(=O)[C@H]([C@@H](C)O)NC(=O)[C@H](CC(=O)O)NC(=O)[C@H](CC2CCOCC2)NC(=O)[C@H](CCCCN)NC(=O)CNC(=O)[C@H](C(C)(C)C)NC1=O [compound 377, Ac-hLeu-Y-C-Tbg-G-K-ThpA-D-Thr-Y-C-5FW-F-hydroxyVal-dLys(DOTA)-COOH] (Ac-[hLeu]YC[Tle]GK[Ala(4-THP)]DTYC[Trp(5-F)]F[Val(3-OH)][dK](DOTA)-OH; disulfide 3-11)
100 to 300 nM | CC(=O)N[C@@H](CCC(C)C)C(=O)N[C@@H](Cc1ccc(O)cc1)C(=O)N[C@H]1CSSC[C@@H](C(=O)N[C@@H](Cc2c[nH]c3ccc(F)cc23)C(=O)N[C@@H](Cc2ccccc2)C(=O)N[C@H](C(=O)N[C@H](CCCCNC(=O)CN2CCN(CC(=O)O)CCN(CC(=O)O)CCN(CC(=O)O)CC2)C(=O)O)C(C)(C)O)NC(=O)[C@H](Cc2ccc(O)cc2)NC(=O)[C@H](CO)NC(=O)[C@H](CC(=O)O)NC(=O)[C@H](CC2CCOCC2)NC(=O)[C@H](CCCCN)NC(=O)CNC(=O)[C@H](C(C)(C)C)NC1=O [compound 378, Ac-hLeu-Y-C-Tbg-G-K-ThpA-D-Ser-Y-C-5FW-F-hydroxyVal-dLys(DOTA)-COOH] (Ac-[hLeu]YC[Tle]GK[Ala(4-THP)]DSYC[Trp(5-F)]F[Val(3-OH)][dK](DOTA)-OH; disulfide 3-11)
1 to 10 nM | CC(=O)N[C@@H](CCC(C)C)C(=O)N[C@@H](Cc1ccc(O)cc1)C(=O)N[C@H]1CSSC[C@@H](C(=O)N[C@@H](Cc2c[nH]c3ccc(F)cc23)C(=O)N[C@@H](Cc2ccccc2)C(=O)N[C@H](C(=O)N[C@H](CCCCNC(=O)CN2CCN(CC(=O)O)CCN(CC(=O)O)CCN(CC(=O)O)CC2)C(=O)O)C(C)(C)O)NC(=O)[C@H](Cc2ccc(O)cc2)NC(=O)[C@H](C(C)C)NC(=O)[C@H](CC(=O)O)NC(=O)[C@H](CC2CCOCC2)NC(=O)[C@H](CCCCN)NC(=O)CN(C)C(=O)[C@H]([C@@H](C)O)NC1=O [compound 386, Ac-hLeu-Y-C-Thr-Sar-K-ThpA-D-V-Y-C-5FW-F-hydroxyVal-dLys(DOTA)-COOH] (Ac-[hLeu]YCT[Sar]K[Ala(4-THP)]DVYC[Trp(5-F)]F[Val(3-OH)][dK](DOTA)-OH; disulfide 3-11)
10 to 100 nM | CC(=O)N[C@@H](CCC(C)(C)C)C(=O)N[C@@H](Cc1ccc(O)cc1)C(=O)N[C@H]1CSSC[C@@H](C(=O)N[C@@H](Cc2c[nH]c3ccc(F)cc23)C(=O)N[C@@H](Cc2ccccc2)C(=O)N[C@H](C(=O)N[C@H](CCCCNC(=O)CN2CCN(CC(=O)O)CCN(CC(=O)O)CCN(CC(=O)O)CC2)C(=O)O)C(C)(C)O)NC(=O)[C@H](Cc2ccc(O)cc2)NC(=O)[C@H](C(C)C)NC(=O)[C@H](CC(=O)O)NC(=O)[C@H](CC2CCOCC2)NC(=O)[C@H](CCCCN)NC(=O)CNC(=O)[C@H](C(C)(C)C)NC1=O [compound 397, Ac-hTba-Y-C-Tbg-G-K-ThpA-D-V-Y-C-5FW-F-hydroxyVal-dLys(DOTA)-COOH] (Ac-[hLeu(5-Me)]YC[Tle]GK[Ala(4-THP)]DVYC[Trp(5-F)]F[Val(3-OH)][dK](DOTA)-OH; disulfide 3-11)

From patent publication US20250296959A1, “B7-H3 TARGETING PEPTIDES AND CONSTRUCTS THEREOF” (Mariana Oncology Inc., priority 2024, published 2025)
